In US20230312493A1, “DEUTERATED AND TRITIATED N-(4,5-DIMETHYLTHIAZOLO-2(3H)-YLIDEN)-2,2,3,3-TETRAMETHYLCYCLOPROPANE-1-CARBOXAMIDE DERIVATIVES AND THE USE THEREOF” (HELMHOLTZ-ZENTRUM DRESDEN-ROSSENDORF E.V., priority 2020, published 2023):

Key:
CBR2 [1] = biological target: T1, CBR2 (Homo sapiens, UniProt P34972); experiment: homolog competition assay, homogenate of CHO cells stably transfected with human CBR2 receptor, radioligand [^18F]JHU94620-D8; type: binding; parameters: expressed in transfected cells; host or cells: CHO cells (stably transfected), used as homogenate
Procedure: The equilibrium dissociation constant KD was determined by means of a homolog competition assay. For that, a constant amount of binding protein (homogenate of CHO cells that were stably transfected with human CBR2 receptor; 2 Mio. cells/mL of the batch) was incubated with a constant amount of [^18F]JHU94620-D8 (0.101 nM in the batch) and an increasing concentration of JHU94620 (0.01 nM-10 µM in the batch) for 60 minutes at room temperature in binding buffer (50 mM TRIS-HCl, pH 7.4, with 5 mM of MgCl2, 1 mM EDTA, 1% BSA). Separation of receptor-bound and free radioligand was carried out by filtration over GF/B glass fiber filter incubated with 0.3% of polyethylene imine. Quantification of receptor-bound radioligand was carried out by measuring the filter-bound radioactivity in a gamma counter. Determination of the unspecific bonding of [^18F]JHU94620-D8 was carried out by co-incubation with CP55940 (10 µM in the batch), determination of the adsorption of the radioligand at the glass fiber filter was carried out by incubation without binding protein. […] CP55940 is a synthetic cannabinoid.

CBR2 [2] = biological target: T1, CBR2; experiment: CBR2 equilibrium dissociation constant Ki via Cheng-Prusoff equation; type: binding; conditions: n = 3; read-out: CBR2 affinity Ki
Procedure: Using the Cheng-Prusoff equation
the CBR2 equilibrium dissociation constant Ki of JHU94620 was determined. Here, L designates the concentration of the free ligand. […] Replacing hydrogen atoms by […] shall not have any influence on the Ki value. This also applies to the replacement of hydrogen atoms by tritium ions.

[3] = in vivo metabolite study (metabolic stability, radio-HPLC of brain homogenate and plasma); parameters: species or system female CD-1 mice; conditions: for percentage of intact radiotracer in the brain / percentage of intact radiotracer in the plasma: female CD-1 mice, 30 min after the injection, radio-HPLC; for metabolic stability (comparison in words): in vivo, compared with another radiotracer
Procedure: The metabolic stability of [^18F]JHU94620-D4 was determined in accordance with the method described by Moldovan et al., J. Med. Chem. 2016, 59, 7840-7855. In the same way, the metabolic stability of JHU94620 and [^18F]JHU94620 was determined. The radio-HPLC chromatograms shown in FIGS. 3 and 4 were determined using a ReproSil-Pur C18 AQ column (250×4.6 mm, […]; eluting agent: 10-90-10% MeCN/20 mM NH4OAc; flow: 1 ml/min). JHU94620 has the following formula: […]
It is seen in FIG. 4 that in the in vivo metabolite study in female CD-1 mice the percentage of intact radiotracer [^18F]JHU94620-D4 in the brain was ~80% (radio-HPLC, extraction yield >97%) and in the plasma was ~15% (radio-HPLC, extraction yield >95%) 30 min after the injection.
In the in vivo metabolite study in female CD-1 mice in case of JHU94620 the percentage of intact radiotracer in the brain was 36% (radio-HPLC, n=3, extraction yield 93%) and in the plasma was 7% (radio-HPLC, n=3, extraction yield 94%) of the total activity 30 min after the injection.

[4] = background statement on prior-art compound; cited from earlier work

T1 sequence (P34972 whole entry): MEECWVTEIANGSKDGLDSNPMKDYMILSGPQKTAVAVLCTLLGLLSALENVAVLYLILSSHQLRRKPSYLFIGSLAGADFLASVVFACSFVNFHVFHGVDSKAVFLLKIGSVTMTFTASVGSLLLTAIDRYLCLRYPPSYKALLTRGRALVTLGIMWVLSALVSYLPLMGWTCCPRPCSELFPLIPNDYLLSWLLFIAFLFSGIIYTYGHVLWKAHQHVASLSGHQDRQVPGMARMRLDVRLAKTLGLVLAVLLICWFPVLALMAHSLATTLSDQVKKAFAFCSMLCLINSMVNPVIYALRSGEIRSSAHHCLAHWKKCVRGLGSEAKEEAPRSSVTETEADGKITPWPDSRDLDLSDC

Structure (SMILES) | IC50 (CBR2 [1]; competition of JHU94620 (0.01 nM-10 µM) with 0.101 nM [^18F]JHU94620-D8, 60 minutes, room temperature) [nM] | Ki (CBR2 [2]) [nM] | percentage of intact radiotracer in the brain [3] | percentage of intact radiotracer in the plasma [3] | metabolic stability (prior art statement) [4] | metabolic stability (comparison in words) [3] | Kd (CBR2 [1]; calculated as KD = IC50 - radioligand (simplified Cheng-Prusoff), read-out: equilibrium dissociation constant KD) [nM]
Cc1s/c(=N\C(=O)C2C(C)(C)C2(C)C)n(CCCCF)c1C [JHU94620] | 2.82 | 0.4 | 36% | 7% | – | – | –
Cc1s/c(=N\C(=O)C2C(C)(C)C2(C)C)n(CCCC[18F])c1C [[^18F]JHU94620, N-(3-(4-([^18F]fluoro)butyl)-4,5-dimethylthiazole-2(3H)-ylidene)-2,2,3,3-tetramethylcyclopropane-1-carboxamide] | – | – | 38% | – | low metabolic stability | – | –
[2H]C([2H])([18F])CCC([2H])([2H])n1c(C)c(C)s/c1=N\C(=O)C1C(C)(C)C1(C)C [[^18F]JHU94620-D4, N-(3-(4-([^18F]fluoro)butyl-1,1,4,4-d4)-4,5-dimethylthiazole-2(3H)-ylidene)-2,2,3,3-tetramethylcyclopropane-1-carboxamide] | – | – | ~ 80% | ~ 15% | – | substantially higher metabolic stability than [^18F]JHU94620 | –
[2H]C([2H])([18F])C([2H])([2H])C([2H])([2H])C([2H])([2H])n1c(C)c(C)s/c1=N\C(=O)C1C(C)(C)C1(C)C [[^18F]JHU94620-D8, N-(3-(4-([^18F]fluoro)butyl-1,1,2,2,3,3,4,4-ds)-4,5-dimethylthiazole-2(3H)-ylidene)-2,2,3,3-tetramethylcyclopropane-1-carboxamide] | – | – | – | – | – | highly similar to that of [^18F]JHU94620-D4 | 2.72
